Active and inactive are the calls of the source. Cut-off read from the data, not from the text of the source, for most assays here: actives have a measured EC50 and inactives only a lower limit.
Tests used:
[1] = target: T1, Heat shock factor protein 1 (Mus musculus, UniProt P38532); assay: inhibition of MG132-induced HSE-luciferase signal, confirmation, cell-based, NIH3T3, luminescence, dose retest (AID 2382); format: functional;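 note: NIH3T3 fibroblasts with HSF1-driven luciferase reporter stressed by proteasome inhibitor MG132; luminescence from HSF1-driven luciferase expression after 8 hours of MG132 stress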
T1 sequence (P38532 whole entry): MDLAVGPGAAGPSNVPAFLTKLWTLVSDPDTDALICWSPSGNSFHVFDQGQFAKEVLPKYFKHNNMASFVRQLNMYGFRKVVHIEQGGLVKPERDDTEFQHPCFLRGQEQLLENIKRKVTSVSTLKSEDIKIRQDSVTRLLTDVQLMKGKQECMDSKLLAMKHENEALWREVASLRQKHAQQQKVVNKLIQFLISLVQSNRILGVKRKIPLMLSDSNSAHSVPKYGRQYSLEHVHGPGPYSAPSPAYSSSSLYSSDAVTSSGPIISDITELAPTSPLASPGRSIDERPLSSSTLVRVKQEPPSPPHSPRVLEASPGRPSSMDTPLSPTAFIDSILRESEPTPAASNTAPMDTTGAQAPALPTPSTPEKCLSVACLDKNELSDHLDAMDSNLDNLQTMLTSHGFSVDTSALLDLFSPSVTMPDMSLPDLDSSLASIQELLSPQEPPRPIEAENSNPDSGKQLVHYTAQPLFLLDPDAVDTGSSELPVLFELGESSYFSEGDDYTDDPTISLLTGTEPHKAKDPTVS

[2] = NIH-3T3 fibroblast cytotoxicity, dose response, cytotoxicity control, cell-based, fluorescence, Alamar Blue, secondary assay (AID 2327); format: functional;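 note: NIH-3T3 mouse fibroblasts cultured with fluconazole at 8 µg/mL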
[3] = C. albicans growth with fluconazole, confirmation, fluorescence, retest (AID 2467); format: functional, cell-based
[4] = cytotoxicity toward NIH3T3 fibroblasts, dose response, counter-screen, cell-based, ATP luminescence, mouse fibroblasts (AID 2010); format: functional; conditions: NIH3T3;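 note: cells exposed to compound for about 90 hours before reading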
[5] = inhibitors of intracellular T. cruzi replication, confirmation, NIH3T3 host cells, beta-gal luminescence (AID 2044); format: functional, cell-based;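 note: intracellular parasites grown in NIH/3T3 mouse fibroblasts as host cells; luminescent beta-galactosidase reporter signal from transgenic T. cruzi replicating inside host cells; inhibitors lower the luminescence signal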
INS1 = assay: beta cell apoptosis inhibitors, cytokine rescue, dose response, luminescence, retest (AID 449756); format: functional, cell-based; conditions: Rattus norvegicus;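 note: cell death triggered by IL-1 beta plus TNF-alpha plus IFN-gamma mixture; protective hits raise ATP signal compared with cytokine alone wells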
[6] = Luminescence Cell-Based Dose Response HTS to Identify Inhibitors of 5'UTR Stem-Loop Driven Prion Protein mRNA Translation in H4 Neuroglioblastoma Cells. [Related pubchem assays: 1827 (Project Summary), 1813 (Primary HTS)]; format: functional
[7] = inhibitors of SNCA 5'UTR-driven reporter translation, confirmation, H4 neuroglioma cells, luminescence (AID 1988); format: functional, cell-based
[8] = inhibitors of firefly luciferase expression or activity, dose response, H4 neuroglioma cells, luminescence (AID 1990); format: functional, cell-based
Cytochrome P450 2D6 = Cytochrome P450 2D6 (Homo sapiens, UniProt P10635);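 note: CYP2D6 member of a cytochrome P450 panel assay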
Cytochrome P450 1A2 = target: T2, Cytochrome P450 1A2 (Homo sapiens, UniProt P05177);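 note: PubChem cytochrome P450 panel assay, CYP1A2 panel member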
T2 sequence (P05177 whole entry): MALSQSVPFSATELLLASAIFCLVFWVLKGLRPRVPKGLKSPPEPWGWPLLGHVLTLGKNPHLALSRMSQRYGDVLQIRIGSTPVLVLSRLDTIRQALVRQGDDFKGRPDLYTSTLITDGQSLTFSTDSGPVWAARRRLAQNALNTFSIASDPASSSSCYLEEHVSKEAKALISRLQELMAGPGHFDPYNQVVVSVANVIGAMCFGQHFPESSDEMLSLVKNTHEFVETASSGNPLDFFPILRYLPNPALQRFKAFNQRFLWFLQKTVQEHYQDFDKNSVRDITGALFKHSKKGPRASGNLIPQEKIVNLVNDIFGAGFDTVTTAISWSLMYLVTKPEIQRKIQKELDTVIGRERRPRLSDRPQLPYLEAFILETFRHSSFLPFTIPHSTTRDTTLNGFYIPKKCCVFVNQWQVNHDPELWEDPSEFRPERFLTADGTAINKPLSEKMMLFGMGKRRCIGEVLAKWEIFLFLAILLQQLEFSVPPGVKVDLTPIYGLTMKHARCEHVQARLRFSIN

[9] = Luminescence Cell-Based Dose Retest to Confirm Inhibitors of Cancer Stem Cells. [Related pubchem assays (depositor defined):AID2717, AID2721]; format: functional, Homo sapiens; conditions: Homo sapiens
[10] = target: FAD-linked sulfhydryl oxidase ALR (Homo sapiens, UniProt P55789); assay: inhibitors of human ALR sulfhydryl oxidase, dose response, biochemical, H2O2 detection, luminescence, cherry-pick (AID 493248)
[11] = HEp-2 cell cytotoxicity, dose response, cytotoxicity control for RSV inhibitor project, HTS (AID 2410); format: functional; conditions: human respiratory syncytial virus
Cytochrome P450 3A4 = Cytochrome P450 3A4 (Homo sapiens, UniProt P08684);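 note: CYP3A4 tested as one member of a cytochrome P450 panel screen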
[12] = Luminescence Cell-Based Dose Response HTS to Identify Activators of Luciferase Translation or Activity in H4 […] Cells. [Related pubchem assays: 1829 (Project Summary), 1814 (Primary HTS)]; format: functional
H4 = assay: Luminescence Cell-Based Dose Response HTS to Identify Activators of 5'UTR Stem-Loop Driven Prion Protein mRNA Translation in H4 Neuroglioblastoma Cells. [Related pubchem assays: 1829 (Project Summary), 1814 (Primary HTS)]; format: functional; conditions: Homo sapiens
Streptococcus = assay: Group A Streptococcus viability loss, dose response, counter-screen for streptokinase expression inhibitor project, luminescence, BacTiterGlo (AID 1915); format: functional, organism-based; conditions: Streptococcus;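 note: potency for reduction of bacterial viability or growth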
[13] = test system: Streptococcus sp. 'group A'; assay: growth inhibition of control SK(-) GAS strain, dose response, counter-screen for streptokinase expression inhibitor project, luminescence, kanamycin, BacTiterGlo, confirmation (AID 1900); format: functional, organism-based; conditions: Streptococcus sp. 'group A'
Streptokinase A = target: T3, Streptokinase A (Streptococcus pyogenes serotype M1, UniProt P10520); assay: S. pyogenes streptokinase expression inhibitors, potency, dose response, plasminogen activation absorbance, OD405 (AID 1914); format: functional, Streptococcus pyogenes M1 GAS;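 note: secreted streptokinase activity via plasminogen activation per viability signal from cell pellet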
T3 sequence (P10520 whole entry): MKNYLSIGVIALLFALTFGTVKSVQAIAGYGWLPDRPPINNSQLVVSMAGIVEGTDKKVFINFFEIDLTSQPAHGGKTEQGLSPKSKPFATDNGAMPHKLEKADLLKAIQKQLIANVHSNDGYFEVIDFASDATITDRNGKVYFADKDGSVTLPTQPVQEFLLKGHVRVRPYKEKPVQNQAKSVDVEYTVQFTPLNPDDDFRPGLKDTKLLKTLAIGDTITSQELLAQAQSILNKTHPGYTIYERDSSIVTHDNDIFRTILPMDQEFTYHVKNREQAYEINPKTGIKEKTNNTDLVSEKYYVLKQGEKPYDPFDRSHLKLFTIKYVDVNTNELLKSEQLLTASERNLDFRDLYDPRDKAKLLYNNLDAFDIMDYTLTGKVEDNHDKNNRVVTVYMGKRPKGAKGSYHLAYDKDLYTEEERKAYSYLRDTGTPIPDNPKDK

FAD-linked sulfhydryl oxidase ALR, sequence (P55789 whole entry): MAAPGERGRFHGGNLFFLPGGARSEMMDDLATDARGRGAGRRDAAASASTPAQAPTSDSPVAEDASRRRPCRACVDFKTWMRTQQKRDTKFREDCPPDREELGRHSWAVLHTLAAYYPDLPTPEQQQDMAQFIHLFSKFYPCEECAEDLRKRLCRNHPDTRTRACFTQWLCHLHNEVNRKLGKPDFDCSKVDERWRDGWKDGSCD
Cytochrome P450 2D6, sequence (P10635 whole entry): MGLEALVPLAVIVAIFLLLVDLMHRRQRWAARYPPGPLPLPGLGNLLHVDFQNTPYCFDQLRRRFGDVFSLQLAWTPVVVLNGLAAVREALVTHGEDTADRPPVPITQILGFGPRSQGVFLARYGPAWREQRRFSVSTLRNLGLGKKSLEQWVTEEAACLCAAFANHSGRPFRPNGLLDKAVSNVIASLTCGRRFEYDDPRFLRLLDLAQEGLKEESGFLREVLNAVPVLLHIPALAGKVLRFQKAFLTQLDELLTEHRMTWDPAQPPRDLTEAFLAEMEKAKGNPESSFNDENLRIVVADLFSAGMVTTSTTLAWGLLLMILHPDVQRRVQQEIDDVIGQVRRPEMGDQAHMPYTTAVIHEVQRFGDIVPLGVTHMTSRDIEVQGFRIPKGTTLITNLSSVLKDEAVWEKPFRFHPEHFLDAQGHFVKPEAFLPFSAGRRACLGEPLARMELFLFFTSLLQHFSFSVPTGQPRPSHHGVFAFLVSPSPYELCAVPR
Cytochrome P450 3A4, sequence (P08684 whole entry): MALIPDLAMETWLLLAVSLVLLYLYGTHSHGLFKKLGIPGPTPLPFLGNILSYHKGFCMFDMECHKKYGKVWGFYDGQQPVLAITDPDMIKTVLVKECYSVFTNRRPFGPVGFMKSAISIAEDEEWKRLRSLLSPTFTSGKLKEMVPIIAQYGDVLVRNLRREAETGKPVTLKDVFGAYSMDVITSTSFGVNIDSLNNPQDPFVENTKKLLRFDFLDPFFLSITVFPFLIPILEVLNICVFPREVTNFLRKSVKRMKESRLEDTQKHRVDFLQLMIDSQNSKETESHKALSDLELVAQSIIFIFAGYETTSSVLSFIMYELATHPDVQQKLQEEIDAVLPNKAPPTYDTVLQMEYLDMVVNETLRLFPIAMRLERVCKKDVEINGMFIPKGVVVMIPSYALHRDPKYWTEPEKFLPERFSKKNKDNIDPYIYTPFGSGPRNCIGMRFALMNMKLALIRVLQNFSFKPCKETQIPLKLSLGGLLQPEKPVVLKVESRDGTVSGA

Compound: CCCCn1c(N(CCOC(C)=O)C(C)=O)nc2ccccc21
- EC50 [1]: > 195 µM (not active)

Compound: CCn1cc(C(=O)c2ccccc2)c2ccccc21
- EC50 [2]: > 160 µM (inactive)
- EC50 [3]: 3.63 µM (active)

Compound: CN1/C(=C\P(=O)(N(C)C)N(C)C)C(C)(C)c2ccccc21
- EC50 [4]: > 60 µM (not active)
- EC50 [5]: 2.96 µM (active)
- AC50 (INS1): 4.32 µM (active)

Compound: Cc1cc(Oc2ccccc2)nc(-c2ccccc2O)n1
- EC50 [2]: > 150 µM (inconclusive)
- EC50 [3]: > 38 µM (not active)

Compound: CCn1c2ccccc2c2cc(NC(=O)C(C)C)ccc21
- EC50 [2]: 63.3 µM (active)
- EC50 [3]: > 38 µM (not active)

Compound: Oc1cccc(Nc2ncnc3c2oc2ccccc23)c1
- EC50 [2]: > 160 µM (inactive)
- EC50 [3]: 3.71 µM (active)

Compound: O=C(N1CCOCC1)C12CCC3CC(CC(C3)C1)C2
- EC50 [1]: > 195 µM (not active)

Compound: O=c1c2c3c(sc2nc(NCCOCCO)n1Cc1ccco1)CCCCC3
- EC50 [1]: > 195 µM (not active)

Compound: Nc1ncccc1OCc1cccc(C(F)(F)F)c1
- EC50 [6]: > 120 µM (not active)
- EC50 [7]: > 120 µM (not active)
- EC50 [8]: > 120 µM (not active)

Compound: COc1ccccc1Nc1ccc2nonc2c1[N+](=O)[O-]
- EC50 [1]: > 195 µM (not active)

Compound: CC(OC(=O)CN1C(=O)c2ccccc2C1=O)C(=O)NC1CCCCC1C (stereo not given)
- EC50 [1]: > 195 µM (not active)

Compound: COC(CN(C)C(=O)c1ccc2c(c1)NC(=O)c1ccccc1S2)OC
- EC50 [2]: > 150 µM (inconclusive)
- EC50 [3]: > 38 µM (not active)

Compound: COc1ccccc1N1CCN(C(=O)C(NS(=O)(=O)c2cccs2)c2ccccc2)CC1 (stereo not given)
- AC50 (Cytochrome P450 2D6): 15.8 µM (inconclusive)
- AC50 (Cytochrome P450 1A2): 2.51 µM (inconclusive)

Compound: N#Cc1cccn1-c1nccs1
- EC50 [1]: > 195 µM (not active)

Compound: CCCCOc1ccc(S(=O)(=O)N2CCN(c3ccc(N4CCN(CC)CC4)nn3)CC2)cc1
- AC50 [9]: < 0.16 µM (active)

Compound: Cc1ccccc1Nc1ncccc1C(=O)N1CCOCC1
- EC50 [2]: > 160 µM (inactive)
- EC50 [3]: > 38 µM (not active)

Compound: Cc1cc(C)c(NC(=O)CCN2CCN(Cc3ccccc3)CC2)c(C)c1
- EC50 [6]: > 120 µM (not active)
- EC50 [7]: > 120 µM (not active)
- EC50 [8]: > 120 µM (not active)

Compound: CCOC(=O)c1cc(CC)sc1NC=C1C(=O)CCCC1=O
- EC50 [1]: > 195 µM (not active)

Compound: CCOC(=O)C1CCN(C(=O)CCS(=O)(=O)c2ccc3c(c2)CC(C)N3C(=O)CC)CC1 (stereo not given)
- EC50 [1]: > 195 µM (not active)

Compound: O=C(O)c1ccc(N/N=C/c2cn(-c3ccccc3)nc2-c2cccs2)cc1
- AC50 [10]: 3.74 µM (active)

Compound: COc1ccccc1-c1nnc(S)n1Cc1ccccc1
- AC50 [10]: 3.09 µM (active)

Compound: CCOC(=O)c1c(NC(=O)c2ccccc2)sc2c(O)c(CN(CC)CC)ccc12
- EC50 [1]: > 195 µM (not active)

Compound: COc1ccc(Nc2cccc(Cl)c2)c(C(=O)O)c1
- AC50 [10]: 2.02 µM (active)
- CC50 [11]: 25.3 µM (active)

Compound: Cc1cc(C)c(S(C)(=O)=O)c(Oc2ccc(C(C)(C)C)cc2)n1
- AC50 (Cytochrome P450 3A4): 14.1 µM (inconclusive)
- EC50 [6]: 1.08 µM (active)
- EC50 [7]: 80.7 µM (active)
- EC50 [8]: 15.7 µM (active)

Compound: Cc1ccc2c(c1)S/C(=C/c1ccc[n+](CCO)c1)N2C
- EC50 [4]: > 60 µM (not active)
- EC50 [5]: 0.832 µM (active)
- AC50 (INS1): 2.98 µM (active)

Compound: Fc1ccc(N/N=C/c2cccnc2)c(F)c1
- EC50 [2]: 16.3 µM (inconclusive)
- EC50 [3]: > 38 µM (not active)

Compound: COc1ccc(N2CCN(CC(=O)Nc3ccc(C)cc3)CC2)cc1
- AC50 [10]: 3 µM (active)

Compound: Cc1cc(Nc2cccc(Cl)c2)nc(-c2ccccc2O)n1
- EC50 [1]: > 195 µM (not active)

Compound: CCCCN(CCCNc1[nH]cnc2ncnc1-2)c1ccccc1
- AC50 [10]: 0.108 µM (active)

Compound: O=C(Nc1ccccc1)OCCOc1ccccc1
- EC50 [1]: > 195 µM (not active)
- EC50 [12]: 30.2 µM (active)
- EC50 (H4): 93.6 µM (active)

Compound: CSc1nccn1C(=O)c1ccccc1[N+](=O)[O-]
- EC50 [1]: > 195 µM (not active)

Compound: Cc1cc(C)c2cc(CN(CCO)C(=O)Nc3ccc(F)cc3)c(O)nc2c1
- EC50 [6]: > 120 µM (not active)
- EC50 [7]: > 120 µM (not active)
- EC50 [8]: 18.3 µM (active)

Compound: Cn1c(-c2ccsc2)c(-c2cccs2)c2cc(-c3ccc4[nH]ccc4c3)ccc21
- AC50 [9]: 9.76 µM (active)

Compound: Cc1ccc(C(=O)CSc2cnc3ccccc3n2)cc1C
- EC50 [1]: 4.3 µM (active)

Compound: CCOc1ccc(S(=O)(=O)N2CCN=C2c2ccccc2)cc1
- AC50 [9]: 3.19 µM (active)

Compound: CCCC(NC(=O)COc1cc2c(c3oc(=O)cc(C)c13)CCC(C)(C)O2)C(=O)O (stereo not given)
- EC50 [1]: > 195 µM (not active)

Compound: Sc1nnc(Cc2noc3ccccc23)n1-c1ccccc1
- AC50 [10]: 5.61 µM (active)

Compound: Nc1ccc(CCc2nc3ccccc3o2)cc1
- AC50 [10]: 1.16 µM (active)

Compound: COc1cc(NC(=O)Nc2cccc(C(C)=O)c2)cc(OC)c1OC
- AC50 [10]: 1.72 µM (active)

Compound: CCOc1cc(/C=N/NC(=O)c2cccnc2)ccc1OCC(N)=O
- EC50 [2]: > 150 µM (inactive)
- EC50 [3]: > 38 µM (not active)

Compound: COc1ccc(OC)c(CNc2ccc3c(c2)nc(C)n3C)c1
- AC50 [10]: 5.53 µM (active)

Compound: CCN(CC)c1ccc(/C=N/NC(=O)Cc2cccs2)c(O)c1
- AC50 (INS1): 0.916 µM (active)

Compound: COc1cc(OC)c2ccc(=O)oc2c1C(CCN1CCCC1)c1ccc(N(C)C)cc1 (stereo not given)
- AC50 [10]: 3.33 µM (active)

Compound: COc1cc2c(cc1OC)CN(c1ccc([N+](=O)[O-])cc1C#N)CC2
- AC50 [10]: > 100 µM (inactive)

Compound: COc1cccc(NC(=O)Nc2nnc(Cc3ccccc3F)s2)c1
- EC50 [1]: > 195 µM (not active)

Compound: O=C(N/N=C/c1ccccc1O)NC12CC3CC(CC(C3)C1)C2
- EC50 (Streptococcus): 15.1 µM (active)
- EC50 [13]: 22.3 µM (active)
- EC50 (Streptokinase A): > 150 µM (not active)
- EC50 [12]: 28.5 µM (active)
- EC50 (H4): > 120 µM (not active)

Compound: CCOc1ccc2c(ccc(/C=C/c3cc(C)c4cccnc4c3O)[n+]2C)c1
- AC50 (Cytochrome P450 2D6): 3.16 µM (inconclusive)
- AC50 (Cytochrome P450 1A2): 6.31 µM (inconclusive)

Compound: CCOC(=O)c1nnc2cc(-c3ccc(Br)cc3)nn2c1C
- EC50 [12]: 27.6 µM (active)
- EC50 (H4): 88.8 µM (active)

Compound: COc1ccc(CSC2=NCCN2)cc1Cl
- AC50 [10]: 0.021 µM (active)
